Reference: PubChem BioAssay (NCI)
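Results reflect a 48-hour exposure of cells in 96-well plates to compound at five concentrations. TGI marks complete inhibition of growth.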

Tests used:
Assay in all cases: growth of human tumour cells (NCI), 48 h
MOLT-4 leukemia = system: MOLT-4 leukemia
HT29 colon = system: HT29 colon
CCRF-CEM leukemia = system: CCRF-CEM leukemia
HOP-92 NSCLC = system: HOP-92 NSCLC
A498 renal = system: A498 renal
NCI-H226 lung = system: NCI-H226 lung
NCI-H522 lung = system: NCI-H522 lung
LOX IMVI melanoma = system: LOX IMVI melanoma
SK-MEL-2 melanoma = system: SK-MEL-2 melanoma
UO-31 renal = system: UO-31 renal

Row | Structure (SMILES) | TGI (MOLT-4 leukemia) [µM] | TGI (HT29 colon) [µM] | TGI (CCRF-CEM leukemia) [µM] | TGI (HOP-92 NSCLC) [µM] | TGI (A498 renal) [µM] | TGI (NCI-H226 lung) [µM] | TGI (NCI-H522 lung) [µM] | TGI (LOX IMVI melanoma) [µM] | TGI (SK-MEL-2 melanoma) [µM] | TGI (UO-31 renal) [µM]
1 | CC(C)C(C/C=C1/CC(CO)(COC(=O)c2ccccc2)OC1=O)C(C)C (stereo not given) | 47 | 36.4 | 43.5 | 35.8 | 39.7 | 32.4 | 35 | 69.6 | > 100 | 31.5
2 | CCOC(=O)/C=C/[C@H](O)[C@@H](O)/C=C/C(=O)OCC | 41.5 | 36.9 | 32.6 | 33.5 | > 100 | > 100 | 39.2 | 74.2 | > 100 | > 100
3 | COC(=O)C1=CN(C2CCCCC2)C2(c3ccccc3)c3ccccc3C(=O)OC(=O)C12 (stereo not given) | > 100 | > 100 | > 100 | > 100 | > 100 | > 100 | > 100 | > 100 | > 100 | > 100
4 | O=C(NC(Nc1ccc(F)cc1)(C(F)(F)F)C(F)(F)F)C(C(F)(F)F)C(F)(F)F | 36.2 | > 100 | 19.7 | > 100 | > 100 | > 100 | > 89.6 | > 100 | 25.2 | > 62.5
5 | CC(C)(C)OC(=O)c1ccc(NCC2=CC(=O)C=CC2=O)cc1 | 4.38 | 35 | 5.35 | 4.4 | 30.9 | 40.5 | 3.1 | 22.6 | 31.8 | 19.7
6 | [O-][N+]1=NC(c2ccccc2)=C1c1ccccc1 | > 50 | > 50 | > 50 | > 50 | > 50 | > 50 | > 50 | > 50 | > 50 | > 50
7 | CC1=CC(C)C(C)N(CCNS(=O)(=O)c2ccc(C)cc2)c2ccccc21 (stereo not given) | 23.5 | 17.4 | 25.6 | 36.1 | 19.2 | 17.8 | 61.1 | 17 | 18 | > 31.6
8 | CC(C)(C)c1cc(OCc2nnc3sc(=S)[nH]n23)c(Cl)cc1OCc1nnc2sc(=S)[nH]n12 | > 100 | > 100 | 37.3 | 53.3 | 88.7 | > 100 | 37.8 | 34.2 | 58.9 | 82.4
9 | O=C(O)CN1CCN(CC(=O)N2CCN(C(=O)OCc3ccccc3)CC2)CCN(CC(=O)O)CCN(CC(=O)N2CCN(C(=O)OCc3ccccc3)CC2)CC1 | > 100 | > 100 | > 100 | > 100 | > 100 | > 100 | > 100 | > 100 | > 100 | > 100
10 | COc1ccc(/C=C2\Sc3nnc(CNc4ccc(Cl)cc4)n3N=C2c2cc(F)c(Cl)cc2Cl)cc1OC | > 100 | > 100 | > 100 | > 100 | > 100 | > 100 | > 100 | > 100 | > 100 | > 100
11 | CC1Cc2cc(O)c(O)cc2-c2cc(O)c(O)cc2CC1C (stereo not given) | 32.3 | 63.9 | > 100 | 46.7 | 56.8 | 67.8 | 49.8 | 23.1 | 15 | 85.3
12 | Oc1cccc2cc(Br)cnc12 | 14.9 | > 73.1 | 7.81 | 74.2 | > 85 | > 100 | 9.18 | > 39.7 | > 100 | > 76.1
13 | COC(=O)c1ccccc1/C=C1\Cc2c(C)cc(C)cc2C1=O | > 100 | > 100 | > 100 | > 100 | > 100 | > 100 | > 100 | > 100 | > 100 | > 100
14 | CCCCCCCCCCCCOc1ccc(/C=C/C2=[N+](CCCl)CCO2)cc1 | > 100 | > 100 | > 100 | 86.5 | > 100 | > 100 | 47 | 39.9 | > 100 | > 100
15 | NCCSCc1ccccc1Cl | 86.3 | > 100 | 78.8 | > 100 | 96.2 | > 100 | > 100 | 66.1 | 87.5 | > 100
16 | CC(C)(C)OC/C=C1\C(=O)O[C@H]2C[C@@H](O[Si](C)(C)C(C)(C)C)C[C@@H]12 | > 100 | > 100 | > 100 | > 100 | > 100 | > 100 | 90.7 | > 100 | > 100 | > 100
17 | O=C1NC(N2CCCCC2)=N/C1=C\c1ccccc1O | > 100 | > 100 | > 100 | > 100 | > 100 | > 100 | > 100 | > 100 | > 100 | > 100
18 | CCN(CC)/[N+]([O-])=N/OCOC(C)=O | > 100 | > 100 | > 100 | > 100 | > 100 | > 100 | > 100 | > 100 | > 100 | > 100
